In the NIST ThermoML archive (doi:10.1021/je100801s):
± gives the expanded uncertainty stated by the source.

Columns and labels:
[1] = Molar enthalpy of transition or fusion; conditions: Crystal; DSC
[2] = for Normal melting temperature: DTA

NC(=O)c1cccc(F)c1 [3-fluorobenzamide]
Conditions	Molar enthalpy of transition or fusion [kJ/mol]
[1]	21.5 ± 0.5

[2]
Conditions	vapor or sublimation pressure [kPa]
323.1 K, Crystal, Calculated from knudsen effusion weight loss	9e-05 ± 2e-05
325.17 K, Crystal, Calculated from knudsen effusion weight loss	0.000114 ± 2e-05
327.18 K, Crystal, Calculated from knudsen effusion weight loss	0.000143 ± 2.1e-05
329.08 K, Crystal, Calculated from knudsen effusion weight loss	0.000183 ± 2.1e-05
331.13 K, Crystal, Calculated from knudsen effusion weight loss	0.000229 ± 2.2e-05
333.18 K, Crystal, Calculated from knudsen effusion weight loss	0.000286 ± 2.2e-05
336.83 K, Crystal, Closed cell (Static) method	0.00046 ± 0.00012
337.28 K, Crystal, Calculated from knudsen effusion weight loss	0.000461 ± 2.6e-05
339.17 K, Crystal, Calculated from knudsen effusion weight loss	0.000559 ± 2.8e-05
339.76 K, Crystal, Closed cell (Static) method	0.00063 ± 0.00012
341.08 K, Crystal, Calculated from knudsen effusion weight loss	0.000688 ± 3.2e-05
342.87 K, Crystal, Closed cell (Static) method	0.00089 ± 0.00012
343.13 K, Crystal, Calculated from knudsen effusion weight loss	0.000842 ± 3.6e-05
345.18 K, Crystal, Calculated from knudsen effusion weight loss	0.001032 ± 8.1e-05
345.87 K, Crystal, Closed cell (Static) method	0.0012 ± 0.00013
348.82 K, Crystal, Closed cell (Static) method	0.00166 ± 0.00013
351.66 K, Crystal, Closed cell (Static) method	0.00222 ± 0.00015
354.65 K, Crystal, Closed cell (Static) method	0.003 ± 0.00017
357.76 K, Crystal, Closed cell (Static) method	0.00407 ± 0.0002
360.59 K, Crystal, Closed cell (Static) method	0.00535 ± 0.00024
363.62 K, Crystal, Closed cell (Static) method	0.0071 ± 0.0003
366.55 K, Crystal, Closed cell (Static) method	0.00941 ± 0.00039
372.5 K, Crystal, Closed cell (Static) method	0.01592 ± 0.00056
375.47 K, Crystal, Closed cell (Static) method	0.02067 ± 0.00064
378.58 K, Crystal, Closed cell (Static) method	0.02712 ± 0.00074
382.58 K, Liquid, Closed cell (Static) method	0.0587 ± 0.0012
384.49 K, Crystal, Closed cell (Static) method	0.04471 ± 0.001
387.47 K, Crystal, Closed cell (Static) method	0.05659 ± 0.0012
387.53 K, Liquid, Closed cell (Static) method	0.07955 ± 0.0015
390.45 K, Crystal, Closed cell (Static) method	0.07258 ± 0.0014
392.49 K, Liquid, Closed cell (Static) method	0.108 ± 0.002
396.38 K, Crystal, Closed cell (Static) method	0.1148 ± 0.0021
397.43 K, Liquid, Closed cell (Static) method	0.1444 ± 0.0021
402.37 K, Liquid, Closed cell (Static) method	0.1895 ± 0.0025
407.27 K, Liquid, Closed cell (Static) method	0.2514 ± 0.003
412.23 K, Liquid, Closed cell (Static) method	0.3264 ± 0.0036
417.16 K, Liquid, Closed cell (Static) method	0.4262 ± 0.0045
422.04 K, Liquid, Closed cell (Static) method	0.5472 ± 0.0055
427.02 K, Liquid, Closed cell (Static) method	0.7039 ± 0.0069
432 K, Liquid, Closed cell (Static) method	0.9006 ± 0.0086

Conditions	Normal melting temperature [°C]
[2], Crystal	128.43 ± 0.39

NC(=O)c1ccc(F)cc1 [4-fluorobenzamide]
Conditions	Molar enthalpy of transition or fusion [kJ/mol]
[1]	19.5 ± 0.7

[2], Closed cell (Static) method
Conditions	vapor or sublimation pressure [kPa]
344.79 K, Crystal	0.0007 ± 0.00012
347.76 K, Crystal	0.00097 ± 0.00012
350.74 K, Crystal	0.0013 ± 0.00013
353.73 K, Crystal	0.00174 ± 0.00014
356.7 K, Crystal	0.00236 ± 0.00015
359.68 K, Crystal	0.00313 ± 0.00017
362.66 K, Crystal	0.0041 ± 0.0002
365.63 K, Crystal	0.00535 ± 0.00024
368.61 K, Crystal	0.00699 ± 0.0003
371.58 K, Crystal	0.009 ± 0.00037
374.54 K, Crystal	0.01167 ± 0.00047
377.53 K, Crystal	0.015 ± 0.00055
380.48 K, Crystal	0.01934 ± 0.00062
383.47 K, Crystal	0.02445 ± 0.00069
386.43 K, Crystal	0.03134 ± 0.0008
392.35 K, Crystal	0.04995 ± 0.0011
395.33 K, Crystal	0.06299 ± 0.0013
398.28 K, Crystal	0.07872 ± 0.0015
401.25 K, Crystal	0.09854 ± 0.0018
404.24 K, Crystal	0.1266 ± 0.0023
407.22 K, Crystal	0.1568 ± 0.0022
410.16 K, Crystal	0.1944 ± 0.0025
410.2 K, Liquid	0.2629 ± 0.0031
412.16 K, Liquid	0.2902 ± 0.0033
413.14 K, Crystal	0.2396 ± 0.0029
414.13 K, Liquid	0.3222 ± 0.0036
416.1 K, Crystal	0.2948 ± 0.0034
416.11 K, Liquid	0.3584 ± 0.0039
418.11 K, Liquid	0.3963 ± 0.0042
419.06 K, Crystal	0.3637 ± 0.004
420.05 K, Liquid	0.4398 ± 0.0046
422.01 K, Crystal	0.4419 ± 0.0046
422.03 K, Liquid	0.4862 ± 0.005
424.02 K, Liquid	0.5382 ± 0.0055
424.99 K, Crystal	0.538 ± 0.0055
426 K, Liquid	0.593 ± 0.0059
427.93 K, Liquid	0.6524 ± 0.0065
429.92 K, Liquid	0.719 ± 0.007
431.89 K, Liquid	0.7879 ± 0.0076
433.87 K, Liquid	0.8708 ± 0.0084
435.84 K, Liquid	0.9508 ± 0.009
437.82 K, Liquid	1.04 ± 0.01

Conditions	Normal melting temperature [°C]
[2], Crystal	156.04 ± 0.39

NC(=O)c1ccccc1F [o-fluorobenzamide]
Conditions	Molar enthalpy of transition or fusion [kJ/mol]
[1]	20.7 ± 0.5

[2]
Conditions	vapor or sublimation pressure [kPa]
303.12 K, Crystal, Calculated from knudsen effusion weight loss	0.000102 ± 2e-05
305.21 K, Crystal, Calculated from knudsen effusion weight loss	0.00013 ± 2.1e-05
307.19 K, Crystal, Calculated from knudsen effusion weight loss	0.000166 ± 2.1e-05
309.12 K, Crystal, Calculated from knudsen effusion weight loss	0.000213 ± 2.1e-05
311.2 K, Crystal, Calculated from knudsen effusion weight loss	0.00027 ± 2.2e-05
313.29 K, Crystal, Calculated from knudsen effusion weight loss	0.000341 ± 2.3e-05
315.11 K, Crystal, Calculated from knudsen effusion weight loss	0.000429 ± 2.5e-05
317.2 K, Crystal, Calculated from knudsen effusion weight loss	0.00054 ± 2.8e-05
317.98 K, Crystal, Closed cell (Static) method	0.0006 ± 0.00011
319.18 K, Crystal, Calculated from knudsen effusion weight loss	0.000668 ± 3.1e-05
320.48 K, Crystal, Closed cell (Static) method	0.0008 ± 0.00011
321.11 K, Crystal, Calculated from knudsen effusion weight loss	0.000843 ± 3.6e-05
322.94 K, Crystal, Closed cell (Static) method	0.00105 ± 0.00012
323.18 K, Crystal, Calculated from knudsen effusion weight loss	0.001059 ± 8.3e-05
325.18 K, Crystal, Calculated from knudsen effusion weight loss	0.001295 ± 0.00011
325.41 K, Crystal, Closed cell (Static) method	0.00137 ± 0.00012
327.86 K, Crystal, Closed cell (Static) method	0.00175 ± 0.00013
330.38 K, Crystal, Closed cell (Static) method	0.00233 ± 0.00015
332.86 K, Crystal, Closed cell (Static) method	0.003 ± 0.00016
335.32 K, Crystal, Closed cell (Static) method	0.0038 ± 0.00019
337.75 K, Crystal, Closed cell (Static) method	0.00484 ± 0.00022
340.21 K, Crystal, Closed cell (Static) method	0.00617 ± 0.00027
342.7 K, Crystal, Closed cell (Static) method	0.00785 ± 0.00033
345.32 K, Crystal, Closed cell (Static) method	0.01002 ± 0.00041
350.2 K, Crystal, Closed cell (Static) method	0.01581 ± 0.00056
355.69 K, Crystal, Closed cell (Static) method	0.02544 ± 0.00071
357.75 K, Crystal, Closed cell (Static) method	0.03116 ± 0.0008
358.65 K, Liquid, Closed cell (Static) method	0.05979 ± 0.0012
360.13 K, Crystal, Closed cell (Static) method	0.03777 ± 0.0009
361.55 K, Liquid, Closed cell (Static) method	0.07225 ± 0.0014
362.71 K, Crystal, Closed cell (Static) method	0.04753 ± 0.001
364.59 K, Liquid, Closed cell (Static) method	0.08814 ± 0.0017
365.1 K, Crystal, Closed cell (Static) method	0.05735 ± 0.0012
367.55 K, Liquid, Closed cell (Static) method	0.1048 ± 0.0019
370.04 K, Crystal, Closed cell (Static) method	0.08597 ± 0.0016
370.55 K, Liquid, Closed cell (Static) method	0.126 ± 0.0023
372.63 K, Crystal, Closed cell (Static) method	0.1058 ± 0.002
375.47 K, Liquid, Closed cell (Static) method	0.1688 ± 0.0023
377.6 K, Crystal, Closed cell (Static) method	0.1572 ± 0.0022
380.43 K, Liquid, Closed cell (Static) method	0.225 ± 0.0028
385.38 K, Liquid, Closed cell (Static) method	0.2972 ± 0.0034
391.35 K, Liquid, Closed cell (Static) method	0.4081 ± 0.0043
394.82 K, Liquid, Closed cell (Static) method	0.4892 ± 0.005
397.41 K, Liquid, Closed cell (Static) method	0.5572 ± 0.0056
399.81 K, Liquid, Closed cell (Static) method	0.6302 ± 0.0063
402.34 K, Liquid, Closed cell (Static) method	0.7124 ± 0.007
404.79 K, Liquid, Closed cell (Static) method	0.8064 ± 0.0078
407.26 K, Liquid, Closed cell (Static) method	0.9115 ± 0.0087
409.66 K, Liquid, Closed cell (Static) method	1.024 ± 0.01
412.16 K, Liquid, Closed cell (Static) method	1.147 ± 0.011

Conditions	Normal melting temperature [°C]
[2], Crystal	115.34 ± 0.52
